Laboratory results reported in patent US8163771B2, “11 β-HSD1 modulators” (Exelixis, Inc., priority 2008, dated 2012).

What follows are compounds tested against T1, recombinant human 11 β-HSD1 (Homo sapiens, UniProt P28845) (assay: 11 β-HSD1 SPA Assay (Scintillation Proximity Assay)).
T1 construct: made in house; host or cells: E. coli
T1 sequence (P28845 whole entry): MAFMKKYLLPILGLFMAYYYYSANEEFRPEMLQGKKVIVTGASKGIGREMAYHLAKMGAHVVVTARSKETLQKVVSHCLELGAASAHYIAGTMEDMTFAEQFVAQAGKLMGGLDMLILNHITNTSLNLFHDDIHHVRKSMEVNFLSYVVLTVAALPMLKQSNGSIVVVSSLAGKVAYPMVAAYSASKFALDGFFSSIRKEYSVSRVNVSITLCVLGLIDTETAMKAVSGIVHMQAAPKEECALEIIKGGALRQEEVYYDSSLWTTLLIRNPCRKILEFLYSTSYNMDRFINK
Format: biochemical
Procedure, shortened: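 E. coli-expressed human enzyme (30-100 nM) with tritiated cortisone 40 nM and NADPH 1 mM in HEPES buffer pH7.4, 2 hours at room temperature. Stopped with protein A SPA beads carrying anti-cortisol antibody and glycyrrhetinic acid; counted after overnight incubation. IC50 from percent inhibition between no-enzyme and no-compound signals.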
`CC(C)(Oc1ccc(Cl)c(Cl)c1)C(=O)N[C@H]1C[C@H]2CC[C@@H](C1)N2c1ccc(C(=O)NCC(F)(F)F)cc1` [Example 166, 4-[3-endo-({2-[(3,4-dichlorophenyl)oxy]-2-methylpropanoyl}amino)-8-azabicyclo[3.2.1]oct-8-yl]-N-(2,2,2-trifluoroethyl)benzamide] was tested, and the IC50 was less than 0.2 µM.
Compound `CC(C)(Oc1ccc(Cl)c(F)c1)C(=O)N[C@H]1C[C@H]2CC[C@@H](C1)N2c1ccc(C(=O)NCC(F)(F)F)cc1` [Example 167, 4-[3-endo-({2-[(4-chloro-3-fluorophenyl)oxy]-2-methylpropanoyl}amino)-8-azabicyclo[3.2.1]oct-8-yl]-N-(2,2,2-trifluoroethyl)benzamide] has an IC50 of less than 0.2 µM.
Work on `CC(C)(Oc1ccc(F)cc1C(F)(F)F)C(=O)N[C@H]1C[C@H]2CC[C@@H](C1)N2c1ccc(C(N)=O)cn1` [Example 168, 6-{3-endo-[(2-{[4-fluoro-2-(trifluoromethyl)phenyl]oxy}-2-methylpropanoyl)amino]-8-azabicyclo[3.2.1]oct-8-yl}pyridine-3-carboxamide] yielded an IC50 of less than 0.2 µM.
Work on `CC(C)(Oc1ccc(Cl)cc1C(F)(F)F)C(=O)N[C@H]1C[C@H]2CC[C@@H](C1)N2c1ccc(C(N)=O)cn1` [Example 169, 6-{3-endo-[(2-{[4-chloro-2-(trifluoromethyl)phenyl]oxy}-2-methylpropanoyl)amino]-8-azabicyclo[3.2.1]oct-8-yl}pyridine-3-carboxamide] yielded an IC50 of less than 0.2 µM.
With `CC(C)(Oc1ccc(Cl)cc1Cl)C(=O)N[C@H]1C[C@H]2CC[C@@H](C1)N2c1ccc(C(=O)NCC(F)(F)F)nc1` [Example 170, 5-[3-endo-({2-[(2,4-dichlorophenyl)oxy]-2-methylpropanoyl}amino)-8-azabicyclo[3.2.1]oct-8-yl]-N-(2,2,2-trifluoroethyl)pyridine-2-carboxamide] the IC50 was less than 0.2 µM.
In the case of `CC(C)(Oc1ccc(Cl)cc1Cl)C(=O)N[C@H]1C[C@H]2CC[C@@H](C1)N2c1cc(C(=O)NCC(F)(F)F)ccn1` [Example 171, 2-[3-endo-({2-[(2,4-dichlorophenyl)oxy]-2-methylpropanoyl}amino)-8-azabicyclo[3.2.1]oct-8-yl]-N-(2,2,2-trifluoroethyl)pyridine-4-carboxamide], the IC50 is reported as less than 2 µM.
`CC(C)(Oc1ccc(C(F)(F)F)cc1)C(=O)N[C@H]1C[C@H]2CC[C@@H](C1)N2c1ccc(C(N)=O)cn1` [Example 172, 6-{3-endo-[(2-methyl-2-{[4-(trifluoromethyl)phenyl]oxy}propanoyl)amino]-8-azabicyclo[3.2.1]oct-8-yl}pyridine-3-carboxamide] showed an IC50 of less than 0.2 µM.
`CC(C)(Oc1ccc(F)cc1Cl)C(=O)N[C@H]1C[C@H]2CC[C@@H](C1)N2c1ccc(S(C)(=O)=O)cc1` [Example 173, 2-[(2-chloro-4-fluorophenyl)oxy]-2-methyl-N-{8-[4-(methylsulfonyl)phenyl]-8-azabicyclo[3.2.1]oct-3-endo-yl}propanamide] gave an IC50 of less than 0.2 µM.
For `CC(C)(Oc1cc(Cl)c(F)cc1Cl)C(=O)N[C@H]1C[C@H]2CC[C@@H](C1)N2c1ccc(S(C)(=O)=O)cc1` [Example 174, 2-[(2,5-dichloro-4-fluorophenyl)oxy]-2-methyl-N-{8-[4-(methylsulfonyl)phenyl]-8-azabicyclo[3.2.1]oct-3-endo-yl}propanamide], the IC50 was less than 2 µM.
`CC(C)(Oc1ncc(Cl)cc1Cl)C(=O)N[C@H]1C[C@H]2CC[C@@H](C1)N2c1ccc(S(C)(=O)=O)cc1` [Example 175, 2-[(3,5-dichloropyridin-2-yl)oxy]-2-methyl-N-{8-[4-(methylsulfonyl)phenyl]-8-azabicyclo[3.2.1]oct-3-endo-yl}propanamide] gave an IC50 of less than 0.2 µM.
For `CC(C)(Oc1ccc(F)cc1C(F)(F)F)C(=O)N[C@H]1C[C@H]2CC[C@@H](C1)N2c1ccc(S(C)(=O)=O)cn1` [Example 176, 2-{[4-fluoro-2-(trifluoromethyl)phenyl]oxy}-2-methyl-N-{8-[5-(methylsulfonyl)pyridin-2-yl]-8-azabicyclo[3.2.1]oct-3-endo-yl}propanamide], the IC50 was less than 0.2 µM.
